Experimental data taken from paper PMC7617456, “Cryptosporidium lysyl-tRNA synthetase inhibitors define the interplay between solubility and permeability required to achieve efficacy” (Science translational medicine, 2024).
≈ marks a conversion by molar mass, not a printed value. Where two headings read alike, the source gives them in different places.

Key:
PAMPA permeability = assay type: in vitro ADME; settings: for Papp at 5 h, 10 µM: PAMPA, pH 7.4, pH 7.4; for PAMPA Papp: pH 7.4
Procedure: Solubility test samples were prepared by adding 5 μL stock to PBS pH 7.4 (195 μL). […] […] vacuum […] (Millipore Multiscreen HTS fi lter, 96-well format) to remove any undissolved material. The […] analyzed for dissolved drug compound using a truncated UHPLC methodology. A calibration solution was prepared for each test compound. […] Aliquots of the test sample […] (0.4 and 5.0 μL) were injected onto the UHPLC system and the resultant test compound peak areas quantifi ed […] PAMPA per meability As previously described.(28) The permeability assay was performed using a 96-well precoated BD Gentest PAMPA plate (BD Biosciences). Each well was divided into two chambers: donor and acceptor, separated by a lipid-oil-lipid trilayer constructed in a porous fi lter. […] Stock solutions (5 mM) of the compound were prepared in DMSO. […] The compound dissolved in phosphate buffered saline was added to the donor side of the membrane, and phosphate-buffered saline without the compound was added to the acceptor side. The PAMPA plate was left at room temperature for 5 h then an aliquot (100 μL) was removed from both acceptor and donor compartments and mixed with acetonitrile (80 μL) containing an internal standard: donepezil at 50 ng/mL. The samples were centrifuged (10 min, 5 °C, 3270×g) to sediment lipids and sealed prior to UPLC-MS/MS analysis using a Quattro Premier XE (Waters Corp, USA). Recovery of the compound from donor and acceptor wells was calculated, and data were only accepted when recovery exceeded 70%.

[1] = Biopharmaceutical Classification System (BCS) categorization; assay type: physicochemical; settings: cut-offs solubility 100 μM, permeability 30 nm/s; Table S1 prints 1-4 for I-IV
Excerpt: To investigate our key parameters, solubility and permeability, we used the Biopharmaceutical Classification System (BCS)([13]) to categorize our tool compounds in a methodical way. […] Restricting either of these properties is likely to have a rate-determining effect on absorption (Class II, purple; Class III, teal). Using the BCS to prioritize compounds for in vivo studies allowed us to systematically examine these individual property combinations and determine whether modulating solubility or permeability influenced compound efficacy. Our hypothesis was that slow absorption due to suboptimal solubility or permeability (i.e. Class II or Class III) would maximize compound concentration at the biophase following a single oral dose.
(A) Schematic of Biopharmaceutical Classification System (BCS). (B) Aqueous solubility and Parallel Artificial Membrane Permeability Assay (PAMPA) measurements of tool compounds from each BCS class. Data are means of two technical replicates. Solubility and permeability cut-offs were defined at 100 μM and 30 nm/s respectively. Raw data reported for all tool compounds in Table S1. (C) NOD SCID Gamma mice were infected with wild type C. parvum. Vehicle, positive control, or tool compound was administered via oral gavage starting day 7 post infection (PI) for 7 days (gray box indicates treatment period). Fecal samples were collected on days indicated by arrows. Fecal samples were collected from individual mice (4 animals per treatment group) and analyzed by qPCR to quantify parasite shedding (oocysts/g). (D) Log reduction in oocyst shedding measured on day 14 PI vs day 21 PI for tool compounds (colored by BCS class) dosed orally at either 30 or 50 mg/kg twice a day (BID) for 7 days in NOD SCID Gamma mice. […] Mean oocyst shedding was determined for each group of n=4 mice, for all compounds tested. Log reduction in oocyst shedding was calculated as log (mean oocysts on day 7) – log (mean oocysts on day 14 or 21).

C. parvum = assay: microbe, parasite or virus in culture; assay type: cell-based, Cryptosporidium parvum
[2] = Aqueous (kinetic) solubility by UHPLC; assay type: physicochemical; settings: PBS pH 7.4, UHPLC
Procedure: As previously described.(27) […]
samples were prepared by adding 5 µL stock to PBS pH 7.4 (195 µL). This solution was mixed […]
The solubility test samples were […]
vacuum ﬁ ltered (Millipore Multiscreen HTS ﬁ lter, 96-well format) to remove any undissolved […]
material. The ﬁ ltrate was analyzed for dissolved drug compound using a truncated UHPLC […]
methodology. A calibration solution was prepared for each test compound. The 10 mM stock […]
solution was diluted in DMSO to give a 500 µM solution. This was further diluted with 50:50 […]
acetonitrile:water to give a 50 µM solution. Aliquots (0.2, 2.0, and 5.0 µL) of this 50 µM solution were injected onto the UHPLC system, and the areas of the resultant peaks were […]
integrated to produce a calibration line. Aliquots of the test sample ﬁ ltrate (0.4 and 5.0 µL) […]
were injected onto the UHPLC system and the resultant test compound peak areas quantiﬁ ed […]
using the calibration line. […]

[3] = Cryptosporidium parvum, HCT-8, 48 h, read-out: C. parvum EC50, co-cultured with HCT-8 cells for 48 hrs
[4] = Cryptosporidium parvum, HCT-8, read-out: C. parvum EC90
[5] = 25 °C, aqueous buffer, kinetic from dmso stock
[6] = calculated from the average EC50 and hill slope, read-out: C. parvum EC90
[7] = co-cultured with HCT-8 cells for 48 hrs, read-out: C. parvum EC50

**Q.** For `Nc1cc(F)cc2c(=O)cc(C(=O)NCC3(O)CCCCC3)oc12` [DDD229], which Papp at 5 h, 10 µM (PAMPA permeability) is on record?
**A.** Its Papp at 5 h, 10 µM is 1.9 ×10⁻⁶ cm/s.

**Q.** And the “BCS Class” value [1]?
**A.** The value was 4.

**Q.** What about the EC50 (C. parvum; [3]) of the same molecule?
**A.** The EC50 was 30 nM.

**Q.** And the EC90 (C. parvum; [4])?
**A.** The EC90 was 80 nM.

**Q.** And the solubility at 24 h [2, 5]?
**A.** The solubility at 24 h was 1.9 µM (≈ 0.635 µg/mL).

**Q.** Which “PAMPA Papp” value (PAMPA permeability) does the source give for `Nc1nc2c(c(C(F)F)n1)C(=O)N(C[C@@H]1CCC[C@H](C(F)(F)F)C1)C2` [DDD352] here?
**A.** The value was 19.3 ×10⁻⁶ cm/s.

**Q.** What about the “BCS Class” value [1] of the same molecule?
**A.** The value was 2.

**Q.** And the EC90 (C. parvum; [6])?
**A.** The EC90 was 60 nM.

**Q.** And the EC50 (C. parvum; [7])?
**A.** Its EC50 is 20 nM.

**Q.** And the solubility at 24 h [2]?
**A.** Its solubility at 24 h is 32 µM (≈ 11.7 µg/mL).

**Q.** With `Cc1nc(N)nc2c1C(=O)N(C[C@@H]1CCC[C@H](C(F)(F)F)C1)C2` [DDD478] as the molecule, how does the “PAMPA Papp” value (PAMPA permeability) read?
**A.** The value was 13.8 ×10⁻⁶ cm/s.

**Q.** What about the “BCS Class” value [1] of the same molecule?
**A.** Its value is 2.

**Q.** And the EC90 (C. parvum; [6])?
**A.** The EC90 was 40 nM.

**Q.** What about the EC50 (C. parvum; [7]) of the same molecule?
**A.** The EC50 was 20 nM.

**Q.** And the solubility at 24 h [2]?
**A.** Its solubility at 24 h is 57 µM (≈ 18.7 µg/mL).

**Q.** For `COc1cc(NS(=O)(=O)CCN2CCCC2)c2oc(C(=O)N[C@@H](C)C3CCCCC3)cc(=O)c2c1` [DDD582], which Papp at 5 h, 10 µM (PAMPA permeability) is on record?
**A.** The Papp at 5 h, 10 µM was 1.6 ×10⁻⁶ cm/s.

**Q.** What about the “BCS Class” value [1] of the same molecule?
**A.** Its value is 3.

**Q.** And the EC50 (C. parvum; [3])?
**A.** The EC50 was 150 nM.

**Q.** What about the EC90 (C. parvum; [4]) of the same molecule?
**A.** The EC90 was 370 nM.

**Q.** What about the solubility at 24 h [2, 5] of the same molecule?
**A.** The solubility at 24 h was 225 µM (≈ 114 µg/mL).

**Q.** For `COc1ccc2oc(C(=O)NCC3(O)CCCCC3)cc(=O)c2c1` [DDD583], which Papp at 5 h, 10 µM (PAMPA permeability) is on record?
**A.** Its Papp at 5 h, 10 µM is 11.5 ×10⁻⁶ cm/s.

**Q.** What about the “BCS Class” value [1] of the same molecule?
**A.** Its value is 2.

**Q.** What about the EC50 (C. parvum; [3]) of the same molecule?
**A.** The EC50 was 140 nM.

**Q.** And the EC90 (C. parvum; [4])?
**A.** The EC90 was 330 nM.

**Q.** What about the solubility at 24 h [2, 5] of the same molecule?
**A.** Its solubility at 24 h is 33 µM (≈ 10.9 µg/mL).

**Q.** With `O=C(NCC1CCCCC1)c1cc(=O)c2cc(F)c(F)c(O)c2o1` [DDD690] as the molecule, how does the Papp at 5 h, 10 µM (PAMPA permeability) read?
**A.** Its Papp at 5 h, 10 µM is 3.2 ×10⁻⁶ cm/s.

**Q.** What about the “BCS Class” value [1] of the same molecule?
**A.** The value was 1.

**Q.** And the EC50 (C. parvum; [3])?
**A.** Its EC50 is 190 nM.

**Q.** What about the EC90 (C. parvum; [4]) of the same molecule?
**A.** Its EC90 is 370 nM.

**Q.** What about the solubility at 24 h [2, 5] of the same molecule?
**A.** The solubility at 24 h was 226 µM (≈ 76.2 µg/mL).

**Q.** For `O=C(NCC1CCCCO1)c1cc(=O)c2ccc(F)c(O)c2o1` (stereo not shown) [DDD695], which Papp at 5 h, 10 µM (PAMPA permeability) is on record?
**A.** Its Papp at 5 h, 10 µM is 1.1 ×10⁻⁶ cm/s.

**Q.** What about the “BCS Class” value [1] of the same molecule?
**A.** The value was 3.

**Q.** And the EC50 (C. parvum; [3])?
**A.** The EC50 was 80 nM.

**Q.** What about the EC90 (C. parvum; [4]) of the same molecule?
**A.** Its EC90 is 180 nM.

**Q.** What about the solubility at 24 h [2, 5] of the same molecule?
**A.** The solubility at 24 h was 236 µM (≈ 75.8 µg/mL).

**Q.** What does the source list for `O=C(NCC1CCCCC1)c1cc(=O)c2ccc(F)c(O)c2o1` [DDD714]?
**A.** Papp at 5 h, 10 µM (PAMPA permeability): 4.3 ×10⁻⁶ cm/s; BCS Class [1]: 1; EC50 (C. parvum; [3]): 30 nM; EC90 (C. parvum; [4]): 50 nM; solubility at 24 h [2, 5]: 377 µM (≈ 120 µg/mL)

**Q.** For `O=C(NCC1(O)CCCCC1)c1cc(=O)c2ccc(F)c(O)c2o1` [DDD844], which Papp at 5 h, 10 µM (PAMPA permeability) is on record?
**A.** The Papp at 5 h, 10 µM was 0.17 ×10⁻⁶ cm/s.

**Q.** What about the “BCS Class” value [1] of the same molecule?
**A.** Its value is 4.

**Q.** And the EC50 (C. parvum; [3])?
**A.** Its EC50 is 170 nM.

**Q.** What about the EC90 (C. parvum; [4]) of the same molecule?
**A.** Its EC90 is 460 nM.

**Q.** And the solubility at 24 h [2, 5]?
**A.** Its solubility at 24 h is 63 µM (≈ 21.1 µg/mL).

**Q.** What does the source list for `Nc1nc2c(c(C(F)(F)F)n1)C(=O)N(CC1CCCC3(CC3)C1)C2` (stereo not shown) [DDD909]?
**A.** PAMPA Papp (PAMPA permeability): 17.4 ×10⁻⁶ cm/s; BCS Class [1]: 2; EC90 (C. parvum; [6]): 130 nM; EC50 (C. parvum; [7]): 70 nM; solubility at 24 h [2]: 14 µM (≈ 4.76 µg/mL)

**Q.** Which results are given for `O=C(NCC1(F)CCCCC1)c1cc(=O)c2ccc(F)c(O)c2o1` [DDD993]?
**A.** Papp at 5 h, 10 µM (PAMPA permeability): 6.3 ×10⁻⁶ cm/s; BCS Class [1]: 1; EC50 (C. parvum; [3]): 100 nM; EC90 (C. parvum; [4]): 150 nM; solubility at 24 h [2, 5]: 234 µM (≈ 78.9 µg/mL)
